Our source for the melting point values is patent publication US9447100B2, “Substituted pyrazolo[1,5-A] pyrimidines as calcium receptor modulating agents” (Takeda Pharmaceutical Company Limited, priority 2002, dated 2016).

Counter-ions that a name gives are not always drawn.

Broadly, the melting point is the temperature, or range, at which the solid turns liquid.

As for `CCC(CC)(NC(=O)c1c(C)nn2c1NC(c1ccccc1)CC2(C)C)c1ccc(C(C)=O)cc1` (stereo not shown) [Example 977, N-(1-(4-acetylphenyl)-1-ethylpropyl)-2,7,7-trimethyl-5-phenyl-4,5,6,7-tetrahydropyrazolo[1,5-a]pyrimidine-3-carboxamide], the melting point lay in the range of 200 to 202 °C.

Turning to `CC1CC(c2ccccc2)Nc2c(C(=O)O)cnn21` (stereo not shown) [Example 27, 7-methyl-5-phenyl-4,5,6,7-tetrahydropyrazolo[1,5-a]pyrimidine-3-carboxylic acid], the melting point was 165 to 167 °C.

`CCC(CC)(NC(=O)c1c(C)nn2c1NC(c1ccccc1)CC2(C)C)c1ccc(N(C)C)cc1` (stereo not shown) (as salt: HCl) [Example 821, N-(1-(4-(dimethylamino)phenyl)-1-ethylpropyl)-2,7,7-trimethyl-5-phenyl-4,5,6,7-tetrahydropyrazolo[1,5-a]pyrimidine-3-carboxamide] showed a melting point of 140 to 141 °C.

As to `CCC(CC)(NC(=O)c1cnn2c1NC(c1ccccc1OC)CC2(C)C)c1ccc(F)cc1` (stereo not shown) [Example 600, N-(1-ethyl-1-(4-fluorophenyl)propyl)-5-(2-methoxyphenyl)-7,7-dimethyl-4,5,6,7-tetrahydropyrazolo[1,5-a]pyrimidine-3-carboxamide], the melting point lay in the range of 206.2 to 206.3 °C.

Compound `O=C(NC1C2CC3CC(C2)CC1C3)c1cnn2c1NC(c1ccc3ccccc3c1)CC2C(F)(F)F` (stereo not shown) [Example 90, N-(2-adamantyl)-5-(2-naphthyl)-7-(trifluoromethyl)-4,5,6,7-tetrahydropyrazolo[1,5-a]pyrimidine-3-carboxamide] yielded a melting point of 280 to 282 °C.

Compound `O=C(NC12CC3CC(CC(C3)C1)C2)c1cnn2c1NC(c1ccccc1)CC21CCCCC1` (stereo not shown) yielded a melting point of 274 to 275 °C.

Consider `CCC(NC(=O)c1cnn2c1NC(c1ccccc1)CC2C(F)(F)F)c1ccccc1F` (stereo not shown) [Example 400, N-(1-(2-fluorophenyl)propyl)-5-phenyl-7-(trifluoromethyl)-4,5,6,7-tetrahydropyrazolo[1,5-a]pyrimidine-3-carboxamide], for which the melting point fell in the range of 204 to 205 °C.

For the compound `CCC(CC)(NC(=O)c1c(C)nn2c1NC(c1cccc(C)c1)CC2(C)C)c1ccc(C)cc1` (stereo not shown) (as salt: HCl) [Example 974, N-(1-ethyl-1-(4-methylphenyl)propyl)-2,7,7-trimethyl-5-(3-methylphenyl)-4,5,6,7-tetrahydropyrazolo[1,5-a]pyrimidine-3-carboxamide], the melting point lay within 120 to 123 °C.

Turning to `CCC(CC)(NC(=O)c1cnn2c1NC(c1ccccc1F)CC2(C)C)c1ccc(C(F)(F)F)cc1` (stereo not shown) [Example 675, N-(1-ethyl-1-(4-(trifluoromethyl)phenyl)propyl)-5-(2-fluorophenyl)-7,7-dimethyl-4,5,6,7-tetrahydropyrazolo[1,5-a]pyrimidine-3-carboxamide], the melting point was 200.9 to 201 °C.

With `CCC(CC)(NC(=O)c1cnn2c1NC(c1ccccc1)CC2(C)C)c1ccc(O)cc1` (stereo not shown) [Example 701, N-(1-ethyl-1-(4-hydroxyphenyl)propyl)-7,7-dimethyl-5-phenyl-4,5,6,7-tetrahydropyrazolo[1,5-a]pyrimidine-3-carboxamide], the melting point lay within 152 to 153 °C.

In the case of `CC1(C)CC(c2ccccc2Cl)Nc2c(C(=O)O)cnn21` (stereo not shown) [Example 940, 5-(2-chlorophenyl)-7,7-dimethyl-4,5,6,7-tetrahydropyrazolo[1,5-a]pyrimidine-3-carboxylic acid], the melting point is 167 to 168 °C.

Regarding `O=C(O)c1cnn2c1NC(c1ccccc1Cl)CC2C(F)(F)F` (stereo not shown) [Example 32, 5-(2-chlorophenyl)-7-(trifluoromethyl)-4,5,6,7-tetrahydropyrazolo[1,5-a]pyrimidine-3-carboxylic acid], the melting point fell in the range of 177 to 179 °C.

`CCC(CC)(NC(=O)c1cnn2c1NC(c1ccccc1)CC2(C)C)c1cccc(Cl)c1` (stereo not shown) [Example 614, N-(1-(3-chlorophenyl)-1-ethylpropyl)-7,7-dimethyl-5-phenyl-4,5,6,7-tetrahydropyrazolo[1,5-a]pyrimidine-3-carboxamide]: the melting point was 195 to 196 °C.

Turning to `CCC(CC)(NC(=O)c1c(C)nn2c1N[C@H](c1ccccc1)CC2(C)C)c1ccc(Cl)cc1` [Example 1041, (5S)-N-(1-(4-chlorophenyl)-1-ethylpropyl)-2,7,7-trimethyl-5-phenyl-4,5,6,7-tetrahydropyrazolo[1,5-a]pyrimidine-3-carboxamide], the melting point was in the range of 131 to 132 °C.

In turn, `CC1(C)C[C@H](c2ccccc2)Nc2c(C(=O)NC34CC5CC(CC(C5)C3)C4)cnn21` [Example 1030, (5R)-N-1-adamantyl-7,7-dimethyl-5-phenyl-4,5,6,7-tetrahydropyrazolo[1,5-a]pyrimidine-3-carboxamide] registered a melting point of 226 to 227 °C.

In the case of `CCC(CC)(NC(=O)c1c(OCCO)nn2c1NC(c1ccccc1)CC2(C)C)c1ccc(C)cc1` (stereo not shown) [Example 975, N-(1-ethyl-1-(4-methylphenyl)propyl)-2-(2-hydroxyethoxy)-7,7-dimethyl-5-phenyl-4,5,6,7-tetrahydropyrazolo[1,5-a]pyrimidine-3-carboxamide], the melting point was 115 to 117 °C.

The compound `COc1ccc(C(NC(=O)c2cnn3c2NC(c2ccccc2)CC3(C)C)c2ccc(OC)cc2)cc1` (stereo not shown) [Example 407, N-(bis(4-methoxyphenyl)methyl)-7,7-dimethyl-5-phenyl-4,5,6,7-tetrahydropyrazolo[1,5-a]pyrimidine-3-carboxamide] gave a melting point of 184 to 185 °C.

`Cc1nn2c(c1C(=O)O)NC(c1ccc(F)cc1)CC2(C)C` (stereo not shown) [Example 948, 5-(4-fluorophenyl)-2,7,7-trimethyl-4,5,6,7-tetrahydropyrazolo[1,5-a]pyrimidine-3-carboxylic acid] returned a melting point of 173 to 174 °C.

With `CCC(CC)(NC(=O)c1c(C)nn2c1NC(c1ccccc1F)CC2(C)C)c1ccccc1` (stereo not shown) (as salt: HCl) [Example 840, N-(1-ethyl-1-phenylpropyl)-5-(2-fluorophenyl)-2,7,7-trimethyl-4,5,6,7-tetrahydropyrazolo[1,5-a]pyrimidine-3-carboxamide], the melting point fell in the range of 160 to 162 °C.

The compound `CCC(CC)(NC(=O)c1c(C)nn2c1NC(c1ccccc1)CC2(C)C)c1ccc(Cl)cc1` (stereo not shown) (as salt: HCl) [Example 723, N-(1-(4-chlorophenyl)-1-ethylpropyl)-2,7,7-trimethyl-5-phenyl-4,5,6,7-tetrahydropyrazolo[1,5-a]pyrimidine-3-carboxamide] showed a melting point of 180 to 181 °C.

On to `CCC(CC)(NC(=O)c1c(C)nn2c1NC(c1ccccc1F)CC2(C)C)c1ccc(C)cc1` (stereo not shown) [Example 962, N-[1-ethyl-1-(4-methylphenyl)propyl]-5-(2-fluorophenyl)-2,7,7-trimethyl-4,5,6,7-tetrahydropyrazolo[1,5-a]pyrimidine-3-carboxamide], for which the melting point was in the range of 139 to 140 °C.

With `CCC(CC)(NC(=O)c1c(C)nn2c1N[C@@H](c1ccccc1)CC2(C)C)c1ccccc1F` (as salt: HCl) [Example 1063, (5R)-N-(1-ethyl-1-(2-fluorophenyl)propyl)-2,7,7-trimethyl-5-phenyl-4,5,6,7-tetrahydropyrazolo[1,5-a]pyrimidine-3-carboxamide], the melting point is 180 to 182 °C.

`COc1ccc(C2CC(C)(C)n3nc(C)c(C(=O)O)c3N2)cc1` (stereo not shown) [Example 950, 5-(4-methoxyphenyl)-2,7,7-trimethyl-4,5,6,7-tetrahydropyrazolo[1,5-a]pyrimidine-3-carboxylic acid] yielded a melting point of 178 to 179 °C.

As for `O=C(O)c1cnn2c1NC(c1ccccc1)C1CCCCC12` (stereo not shown) [Example 39, 5-phenyl-4,5,5a,6,7,8,9,9a-octahydropyrazolo[1,5-a]quinazoline-3-carboxylic acid], the melting point was 158 to 160 °C.

For `CCC1(CC)C[C@H](O)CN1C(=O)c1cnn2c1N[C@@H](c1ccccc1)CC2(C)C` [Example 1117, (3S)-1-(((5R)-7,7-dimethyl-5-phenyl-4,5,6,7-tetrahydropyrazolo[1,5-a]pyrimidin-3-yl)carbonyl)-5,5-diethyl-3-pyrrolidinol], the melting point fell in the range of 249 to 251 °C.

As to `Cc1ccc(C(C)(C)NC(=O)c2c(C)nn3c2NC(c2ccccc2)CC3(C)C)cc1` (stereo not shown) (as salt: HCl) [Example 794, 2,7,7-trimethyl-N-(1-methyl-1-(4-methylphenyl)ethyl)-5-phenyl-4,5,6,7-tetrahydropyrazolo[1,5-a]pyrimidine-3-carboxamide], the melting point is 193 to 194 °C.

On to `CCC(CC)(NC(=O)c1c(C)nn2c1N[C@@H](c1ccccc1)CC2(C)C)c1ccc(O)cc1` [Example 1064, (5R)-N-(1-ethyl-1-(4-hydroxyphenyl)propyl)-2,7,7-trimethyl-5-phenyl-4,5,6,7-tetrahydropyrazolo[1,5-a]pyrimidine-3-carboxamide], for which the melting point lay within 160 to 161 °C.

In turn, `CCC(CC)(NC(=O)c1c(C)nn2c1NC(c1ccccc1C)CC2(C)C)c1ccc(C)cc1` (stereo not shown) (as salt: HCl) [Example 782, N-(1-ethyl-1-(4-methylphenyl)propyl)-2,7,7-trimethyl-5-(2-methylphenyl)-4,5,6,7-tetrahydropyrazolo[1,5-a]pyrimidine-3-carboxamide] displayed a melting point of 187 to 188 °C.

Turning to `CC1(C)CC(c2ccccc2)Nc2c(C(=O)N(Cc3ccccc3)Cc3ccccc3)cnn21` (stereo not shown) [Example 408, N,N-dibenzyl-7,7-dimethyl-5-phenyl-4,5,6,7-tetrahydropyrazolo[1,5-a]pyrimidine-3-carboxamide], the melting point was in the range of 206 to 207 °C.

Turning to `CC1(C)CC(c2ccccc2)Nc2c(C(=O)NC(c3ccc(Cl)cc3)c3ccc(Cl)cc3)cnn21` (stereo not shown) [Example 405, N-(bis(4-chlorophenyl)methyl)-7,7-dimethyl-5-phenyl-4,5,6,7-tetrahydropyrazolo[1,5-a]pyrimidine-3-carboxamide], the melting point lay within 180 to 181 °C.

`CC1(C)CC(c2ccccc2)Nc2c(C(=O)N(Cc3ccc(C(F)(F)F)cc3)Cc3ccc(C(F)(F)F)cc3)cnn21` (stereo not shown) [Example 409, 7,7-dimethyl-5-phenyl-N,N-bis(4-(trifluoromethyl)benzyl)-4,5,6,7-tetrahydropyrazolo[1,5-a]pyrimidine-3-carboxamide]: the melting point was 164 to 165 °C.
